Measurements from ChEMBL document CHEMBL3885861, “Open TG-GATES”.

Species on record: Rattus norvegicus
Test: Open TG-GATES - Regimen: Single
Assay type: toxicity, organism-based, Sprague-Dawley
Parameters: regimen Single, gender Male, age 6 weeks
Details: in vivo, po, 300 mg/kg, route gavage, dose level High; for APTT / Bas / Eos / Fbg / Hb / Ht / Lym / MCH / MCHC / MCV / Mono / Neu / PT / Plat / RBC / Ret / WBC: tissue Blood; for KIDNEY_L / KIDNEY_R / KIDNEY_TOTAL: tissue Kidney; for LIVER: tissue Liver; for A/G / ALP / ALT / AST / BUN / CRE / Ca / Cl / DBIL / GLC / IP / K / LDH / Na / PL / RALB / TBIL / TC / TG / TP / gamma-GTP: tissue Plasma

`CC[C@H]1[C@@H]2C[C@H]3[C@@H]4N(C)c5ccccc5[C@]45C[C@@H]([C@@H]2[C@H]5O)N3[C@@H]1O` [AJMALINE] showed a TERMINAL_BW (3 h) of 194.9 g, an APTT (3 h) of 17 s and a Bas (3 h) of 0%. It also gave an Eos (3 h) of 0.6%, a Fbg (3 h) of 201.8 mg/dL and a Hb (3 h) of 13 g/dL. For the same molecule, the Ht (3 h) was 39.5%, the Lym (3 h) was 80.6% and the MCH (3 h) was 21.3 pg. It also gave an MCHC (3 h) of 32.8%, an MCV (3 h) of 64.8 fL and a Mono (3 h) of 6.4%. For the same molecule, the Neu (3 h) was 12.6%, the PT (3 h) was 11.9 s and the Plat (3 h) was 106.2 x10_4/uL. For the same molecule, the RBC (3 h) was 611.2 x10_4/ul, the Ret (3 h) was 11.5% and the WBC (3 h) was 94.5 x10_2/uL. For the same molecule, the KIDNEY_L (3 h) was 0.9 g, the KIDNEY_R (3 h) was 0.9 g and the KIDNEY_TOTAL (3 h) was 1.9 g. For the same molecule, the LIVER (3 h) was 9.2 g, the A/G (3 h) was 2.3 and the ALP (3 h) was 955.4 IU/L. The ALT (3 h) was 34 IU/L, the AST (3 h) was 64.6 IU/L and the BUN (3 h) was 13.2 mg/dL. The CRE (3 h) was 0.4 mg/dL, the Ca (3 h) was 10.6 mg/dL and the Cl (3 h) was 103.6 meq/L. The DBIL (3 h) was 0.018 mg/dL, the GLC (3 h) was 184.6 mg/dL and the IP (3 h) was 8.9 mg/dL. The K (3 h) was 4.4 meq/L, the LDH (3 h) was 108.4 IU/L and the Na (3 h) was 137.8 meq/L. It also gave a PL (3 h) of 135 mg/dL, an RALB (3 h) of 3.7 g/dL and a TBIL (3 h) of 0.4 mg/dL. The TC (3 h) was 71.4 mg/dL, the TG (3 h) was 57.8 mg/dL and the TP (3 h) was 5.3 g/dL. The gamma-GTP (3 h) was 1 IU/L, the TERMINAL_BW (6 h) was 195.8 g and the APTT (6 h) was 17.3 s. It also gave a Bas (6 h) of 0%, an Eos (6 h) of 1.2% and a Fbg (6 h) of 211.8 mg/dL. It also gave a Hb (6 h) of 13.1 g/dL, a Ht (6 h) of 40% and a Lym (6 h) of 69.2%. It also gave an MCH (6 h) of 21.6 pg, an MCHC (6 h) of 32.7% and an MCV (6 h) of 66 fL. The Mono (6 h) was 8.8%, the Neu (6 h) was 20.6% and the PT (6 h) was 11.8 s. It also gave a Plat (6 h) of 109.7 x10_4/uL, an RBC (6 h) of 607 x10_4/ul and a Ret (6 h) of 11.3%. The WBC (6 h) was 82.2 x10_2/uL, the KIDNEY_L (6 h) was 0.9 g and the KIDNEY_R (6 h) was 1 g. For the same molecule, the KIDNEY_TOTAL (6 h) was 1.9 g, the LIVER (6 h) was 9 g and the A/G (6 h) was 2.1. For the same molecule, the ALP (6 h) was 795 IU/L, the ALT (6 h) was 32.2 IU/L and the AST (6 h) was 64.6 IU/L. The BUN (6 h) was 10.4 mg/dL, the CRE (6 h) was 0.5 mg/dL and the Ca (6 h) was 10.8 mg/dL. It also gave a Cl (6 h) of 102.6 meq/L, a DBIL (6 h) of 0.062 mg/dL and a GLC (6 h) of 184.6 mg/dL. The IP (6 h) was 9.2 mg/dL, the K (6 h) was 4.6 meq/L and the LDH (6 h) was 93.2 IU/L. For the same molecule, the Na (6 h) was 137.2 meq/L, the PL (6 h) was 142.6 mg/dL and the RALB (6 h) was 3.7 g/dL. For the same molecule, the TBIL (6 h) was 0.4 mg/dL, the TC (6 h) was 77.8 mg/dL and the TG (6 h) was 40.2 mg/dL. For the same molecule, the TP (6 h) was 5.4 g/dL, the gamma-GTP (6 h) was 1.8 IU/L and the TERMINAL_BW (9 h) was 189 g. It also gave an APTT (9 h) of 16.4 s, a Bas (9 h) of 0% and an Eos (9 h) of 1.4%. For the same molecule, the Fbg (9 h) was 215.8 mg/dL, the Hb (9 h) was 13.2 g/dL and the Ht (9 h) was 40.1%. It also gave a Lym (9 h) of 72.8%, an MCH (9 h) of 21.2 pg and an MCHC (9 h) of 32.9%. It also gave an MCV (9 h) of 64.4 fL, a Mono (9 h) of 8% and a Neu (9 h) of 18.4%. For the same molecule, the PT (9 h) was 11.9 s, the Plat (9 h) was 117.8 x10_4/uL and the RBC (9 h) was 623.8 x10_4/ul. It also gave a Ret (9 h) of 11.7%, a WBC (9 h) of 70.8 x10_2/uL and a KIDNEY_L (9 h) of 0.9 g. It also gave a KIDNEY_R (9 h) of 0.9 g, a KIDNEY_TOTAL (9 h) of 1.7 g and an LIVER (9 h) of 8.5 g. It also gave an A/G (9 h) of 2.3, an ALP (9 h) of 780.6 IU/L and an ALT (9 h) of 31 IU/L. The AST (9 h) was 62.8 IU/L, the BUN (9 h) was 13.2 mg/dL and the CRE (9 h) was 0.6 mg/dL. It also gave a Ca (9 h) of 10.5 mg/dL, a Cl (9 h) of 103.6 meq/L and a DBIL (9 h) of 0.078 mg/dL. For the same molecule, the GLC (9 h) was 178 mg/dL, the IP (9 h) was 10.1 mg/dL and the K (9 h) was 5 meq/L. The LDH (9 h) was 113.8 IU/L, the Na (9 h) was 138.4 meq/L and the PL (9 h) was 146.4 mg/dL. For the same molecule, the RALB (9 h) was 3.8 g/dL, the TBIL (9 h) was 0.4 mg/dL and the TC (9 h) was 87.8 mg/dL. The TG (9 h) was 50 mg/dL, the TP (9 h) was 5.4 g/dL and the gamma-GTP (9 h) was 1 IU/L. It also gave a TERMINAL_BW (24 h) of 206.4 g, an APTT (24 h) of 16 s and a Bas (24 h) of 0%. For the same molecule, the Eos (24 h) was 1%, the Fbg (24 h) was 199.4 mg/dL and the Hb (24 h) was 13 g/dL. For the same molecule, the Ht (24 h) was 39.3%, the Lym (24 h) was 79.8% and the MCH (24 h) was 21.6 pg. For the same molecule, the MCHC (24 h) was 33%, the MCV (24 h) was 65.5 fL and the Mono (24 h) was 6.8%. It also gave a Neu (24 h) of 12.6%, a PT (24 h) of 11.8 s and a Plat (24 h) of 108 x10_4/uL. For the same molecule, the RBC (24 h) was 599.6 x10_4/ul, the Ret (24 h) was 9.9% and the WBC (24 h) was 77.5 x10_2/uL. It also gave a KIDNEY_L (24 h) of 1 g, a KIDNEY_R (24 h) of 1 g and a KIDNEY_TOTAL (24 h) of 1.9 g. For the same molecule, the LIVER (24 h) was 9.9 g, the A/G (24 h) was 2.2 and the ALP (24 h) was 860.6 IU/L. The ALT (24 h) was 37.4 IU/L, the AST (24 h) was 69 IU/L and the BUN (24 h) was 18 mg/dL. The CRE (24 h) was 0.6 mg/dL, the Ca (24 h) was 11 mg/dL and the Cl (24 h) was 101.4 meq/L. The DBIL (24 h) was 0.03 mg/dL, the GLC (24 h) was 196.4 mg/dL and the IP (24 h) was 9.1 mg/dL. For the same molecule, the K (24 h) was 4.6 meq/L, the LDH (24 h) was 109.4 IU/L and the Na (24 h) was 139.4 meq/L. For the same molecule, the PL (24 h) was 149.4 mg/dL, the RALB (24 h) was 3.7 g/dL and the TBIL (24 h) was 0.4 mg/dL. It also gave a TC (24 h) of 83.8 mg/dL, a TG (24 h) of 99 mg/dL and a TP (24 h) of 5.3 g/dL. For the same molecule, the gamma-GTP (24 h) was 0.8 IU/L.
